Test results from PubChem BioAssay (NCI).
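Following 48 hours of exposure in 96-well plates, responses at five concentrations were used to interpolate endpoints linearly. TGI marks complete inhibition of growth.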

Key:
Assay in all cases: inhibition of tumour cell growth, NCI panel, 48 h
[1] = test system: UACC-62 melanoma
[2] = test system: M14 melanoma
[3] = test system: U251 CNS
[4] = test system: OVCAR-3 ovarian
[5] = test system: IGROV1 ovarian
[6] = test system: SN12C renal
[7] = test system: COLO 205 colon
[8] = test system: OVCAR-5 ovarian
[9] = test system: MOLT-4 leukemia
[10] = test system: SK-OV-3 ovarian

SMILES	TGI [1] [µM]	TGI [2] [µM]	TGI [3] [µM]	TGI [4] [µM]	TGI [5] [µM]	TGI [6] [µM]	TGI [7] [µM]	TGI [8] [µM]	TGI [9] [µM]	TGI [10] [µM]
O=C(CCCN1CC=C(n2c(=O)[nH]c3ccccc32)CC1)c1cccs1	> 100	> 100	> 100	> 100	> 100	> 100	> 100	> 100	> 100	> 100
COc1cc(/C=C2\N=C(c3ccccc3)N(/N=C/c3cc4cc(C)ccc4nc3Cl)C2=O)cc(OC)c1OC	> 100	> 100	51	> 100	> 100	> 100	63.7	> 100	51	> 100
CN(CCO)c1nc2c(c(=O)[nH]1)CNCC2	> 100	> 100	> 100	> 100	> 100	> 100	> 100	> 100	> 100	> 100
COc1ccc(C(=O)N2CCN(c3ccc4[nH]c(=O)oc4c3)CC2)cc1	> 100	> 100	> 100	> 100	> 100	> 100	> 100	> 100	> 100	> 100
CC(C)=CCC[C@@H](C)C1=C(Nc2ccccc2)C(O)=C(C)C(=O)C1=O	20.7	15.6	> 56.1	8.97	17.6	41.6	13.1	> 43.5	> 22.7	> 36.4
N#CC(C#N)=C1CCCCc2ccc([N+](=O)[O-])cc21	> 100	> 100	> 100	> 100	> 100	> 100	> 100	> 100	> 100	> 100
O=C1NC(Cc2c[nH]c3ccccc23)C(=O)N2C(c3ccccc3)c3[nH]c4ccccc4c3C[C@@H]12 (stereo not given in full)	34.7	49.1	39.2	35.7	50.1	33.3	45.9	45.2	42.2	> 100
C/C(=N/NC(=S)N1CCCC1)c1cccc(/C(C)=N\NC(=S)N2CCCC2)n1	9.39	2.56	4.14	2.63	37.1	5.73	> 100	6.85	2.18	4.65
CCCCc1ccc(N2C(=O)c3cccnc3S2(=O)=O)cc1	> 100	> 100	> 100	> 100	> 100	> 100	> 100	> 100	> 100	> 100
COC(=O)[C@]12CSC[C@H]1C[C@H](c1ccc(N(C)C)cc1)N2	> 100	> 100	> 100	> 100	> 100	> 100	> 100	> 100	> 100	> 100
COC(=O)/C=C(\S/C(=C(/c1ccc(OC)cc1)n1cc(C(=O)OC)c(C(=O)OC)n1)c1ccc(OC)cc1)C(=O)OC	> 100	> 100	> 100	13.2	22.5	51.4	8.64	69.7	> 100	> 100
